Source: PMC3639963, “A New Class of Small Molecule Inhibitor of BMP Signaling” (PLoS ONE, 2013)

Key:
Assay in all cases: Nanosyn kinase profiling
Type in all cases: biochemical
Conditions in all cases: read-out: Percentage inhibition; for inhibition at 0.1 µM: 0.1 µM inhibitor; for inhibition at 1 µM: 1 µM inhibitor
CDK6/cycD3 = target: T1, CDK6/cycD3 (Homo sapiens, UniProt Q00534)
T1 construct: purchased Nanosyn (enzymatic panel); SGC in-house recombinant human kinases (DSF panel); Invitrogen (ALK1-6)
T1 sequence (Q00534 whole entry): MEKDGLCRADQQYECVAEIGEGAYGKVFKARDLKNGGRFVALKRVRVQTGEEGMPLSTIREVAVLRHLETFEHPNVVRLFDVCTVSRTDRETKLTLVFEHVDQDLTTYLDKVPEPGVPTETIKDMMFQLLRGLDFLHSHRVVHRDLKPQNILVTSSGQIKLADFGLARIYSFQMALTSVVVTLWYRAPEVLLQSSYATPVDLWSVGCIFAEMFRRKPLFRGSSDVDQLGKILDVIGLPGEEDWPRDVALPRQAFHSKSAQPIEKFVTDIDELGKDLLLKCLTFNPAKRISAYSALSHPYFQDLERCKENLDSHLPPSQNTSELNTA
T1 sequence (P30281 whole entry partner): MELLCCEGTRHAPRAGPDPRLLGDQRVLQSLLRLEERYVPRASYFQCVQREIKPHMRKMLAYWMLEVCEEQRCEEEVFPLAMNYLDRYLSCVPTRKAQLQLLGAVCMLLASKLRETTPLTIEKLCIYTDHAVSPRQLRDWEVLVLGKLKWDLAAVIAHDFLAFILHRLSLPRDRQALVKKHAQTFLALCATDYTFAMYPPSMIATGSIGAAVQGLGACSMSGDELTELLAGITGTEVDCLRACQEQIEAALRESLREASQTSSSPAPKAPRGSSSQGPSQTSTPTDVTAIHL
Summary of the method: (§1)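 Percent inhibition of each kinase was measured with the inhibitor at 0.1 µM and at 1 µM, as part of a 200-kinase human selectivity panel.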

MARK3 = target: T2, MARK3 (Homo sapiens, UniProt P27448)
T2 construct: purchased Nanosyn (enzymatic panel); SGC in-house recombinant human kinases (DSF panel); Invitrogen (ALK1-6)
T2 sequence (P27448 whole entry): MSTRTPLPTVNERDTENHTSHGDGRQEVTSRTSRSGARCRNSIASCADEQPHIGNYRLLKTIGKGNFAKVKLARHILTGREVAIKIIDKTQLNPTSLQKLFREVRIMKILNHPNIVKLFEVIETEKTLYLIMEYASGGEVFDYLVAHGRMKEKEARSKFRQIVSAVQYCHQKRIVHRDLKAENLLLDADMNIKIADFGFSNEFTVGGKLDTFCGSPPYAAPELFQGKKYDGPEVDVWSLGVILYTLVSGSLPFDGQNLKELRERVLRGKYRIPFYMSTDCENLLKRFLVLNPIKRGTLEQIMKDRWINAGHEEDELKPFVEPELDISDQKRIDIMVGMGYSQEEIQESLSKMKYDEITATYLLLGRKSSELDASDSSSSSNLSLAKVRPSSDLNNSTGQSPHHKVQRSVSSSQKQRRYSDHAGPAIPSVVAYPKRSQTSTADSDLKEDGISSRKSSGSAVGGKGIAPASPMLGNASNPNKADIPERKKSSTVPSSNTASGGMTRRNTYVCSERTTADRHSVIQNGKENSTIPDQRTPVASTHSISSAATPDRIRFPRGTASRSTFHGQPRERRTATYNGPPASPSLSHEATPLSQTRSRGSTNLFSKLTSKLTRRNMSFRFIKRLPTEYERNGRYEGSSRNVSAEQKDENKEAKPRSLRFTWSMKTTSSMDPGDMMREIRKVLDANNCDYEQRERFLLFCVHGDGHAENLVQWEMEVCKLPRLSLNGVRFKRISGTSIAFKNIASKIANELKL
Summary of the method: as §1

NEK6 = target: T3, NEK6 (Homo sapiens, UniProt Q9HC98)
T3 construct: purchased Nanosyn (enzymatic panel); SGC in-house recombinant human kinases (DSF panel); Invitrogen (ALK1-6)
T3 sequence (Q9HC98 whole entry): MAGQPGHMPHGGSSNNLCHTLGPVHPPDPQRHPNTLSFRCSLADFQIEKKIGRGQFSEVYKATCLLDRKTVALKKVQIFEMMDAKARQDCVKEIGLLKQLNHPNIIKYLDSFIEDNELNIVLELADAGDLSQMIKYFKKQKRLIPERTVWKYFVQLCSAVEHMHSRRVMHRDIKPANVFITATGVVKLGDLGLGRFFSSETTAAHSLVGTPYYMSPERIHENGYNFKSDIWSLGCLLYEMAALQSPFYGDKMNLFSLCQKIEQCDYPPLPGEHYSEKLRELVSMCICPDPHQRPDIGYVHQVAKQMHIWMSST
Summary of the method: as §1

MER = target: T4, MER (Homo sapiens, UniProt Q12866)
T4 construct: purchased Nanosyn (enzymatic panel); SGC in-house recombinant human kinases (DSF panel); Invitrogen (ALK1-6)
T4 sequence (Q12866 21-999): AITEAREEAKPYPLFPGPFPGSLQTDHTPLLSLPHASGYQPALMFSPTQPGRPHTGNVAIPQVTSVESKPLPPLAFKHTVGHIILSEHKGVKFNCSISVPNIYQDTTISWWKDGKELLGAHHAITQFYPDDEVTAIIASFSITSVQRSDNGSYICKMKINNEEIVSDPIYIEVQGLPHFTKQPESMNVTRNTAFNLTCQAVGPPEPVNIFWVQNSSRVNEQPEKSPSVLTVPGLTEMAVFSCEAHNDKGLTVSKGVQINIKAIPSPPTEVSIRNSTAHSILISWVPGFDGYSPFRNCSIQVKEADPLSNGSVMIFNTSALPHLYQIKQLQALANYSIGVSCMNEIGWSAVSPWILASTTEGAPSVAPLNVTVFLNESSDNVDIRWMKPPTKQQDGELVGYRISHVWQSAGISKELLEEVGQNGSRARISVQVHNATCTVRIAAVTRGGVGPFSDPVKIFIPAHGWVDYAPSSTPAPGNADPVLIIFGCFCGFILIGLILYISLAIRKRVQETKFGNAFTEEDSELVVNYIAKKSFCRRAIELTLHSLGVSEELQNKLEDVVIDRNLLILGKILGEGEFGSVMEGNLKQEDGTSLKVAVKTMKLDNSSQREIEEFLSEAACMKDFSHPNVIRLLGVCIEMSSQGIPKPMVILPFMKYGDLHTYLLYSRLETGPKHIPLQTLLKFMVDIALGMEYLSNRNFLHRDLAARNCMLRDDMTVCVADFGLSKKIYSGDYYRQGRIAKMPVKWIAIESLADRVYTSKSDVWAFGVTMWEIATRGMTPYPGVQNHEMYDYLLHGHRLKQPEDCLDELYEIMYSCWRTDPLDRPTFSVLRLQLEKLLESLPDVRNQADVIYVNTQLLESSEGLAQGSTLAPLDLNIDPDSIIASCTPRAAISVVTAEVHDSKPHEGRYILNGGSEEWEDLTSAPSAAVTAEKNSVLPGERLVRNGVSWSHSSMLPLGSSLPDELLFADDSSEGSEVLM
Summary of the method: as §1

LYNB = target: T5, LYNB (Homo sapiens, UniProt P07948)
T5 construct: purchased Nanosyn (enzymatic panel); SGC in-house recombinant human kinases (DSF panel); Invitrogen (ALK1-6)
T5 sequence (P07948 1-491 isoform P07948-2): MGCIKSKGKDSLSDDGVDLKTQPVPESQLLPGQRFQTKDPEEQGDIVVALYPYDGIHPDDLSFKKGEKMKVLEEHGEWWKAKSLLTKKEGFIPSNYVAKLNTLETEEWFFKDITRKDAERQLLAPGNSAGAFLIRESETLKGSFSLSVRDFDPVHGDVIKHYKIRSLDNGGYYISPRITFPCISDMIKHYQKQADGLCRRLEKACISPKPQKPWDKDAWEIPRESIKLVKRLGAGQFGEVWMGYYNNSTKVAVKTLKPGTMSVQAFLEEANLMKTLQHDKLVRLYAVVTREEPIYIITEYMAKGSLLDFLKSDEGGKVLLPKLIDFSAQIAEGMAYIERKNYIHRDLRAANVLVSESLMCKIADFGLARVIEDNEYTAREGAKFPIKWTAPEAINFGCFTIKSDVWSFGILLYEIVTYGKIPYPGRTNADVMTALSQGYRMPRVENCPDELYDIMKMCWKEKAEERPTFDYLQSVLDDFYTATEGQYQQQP
Summary of the method: as §1

p38β = target: T6, p38β (Homo sapiens, UniProt Q15759)
T6 construct: purchased Nanosyn (enzymatic panel); SGC in-house recombinant human kinases (DSF panel); Invitrogen (ALK1-6)
T6 sequence (Q15759 whole entry): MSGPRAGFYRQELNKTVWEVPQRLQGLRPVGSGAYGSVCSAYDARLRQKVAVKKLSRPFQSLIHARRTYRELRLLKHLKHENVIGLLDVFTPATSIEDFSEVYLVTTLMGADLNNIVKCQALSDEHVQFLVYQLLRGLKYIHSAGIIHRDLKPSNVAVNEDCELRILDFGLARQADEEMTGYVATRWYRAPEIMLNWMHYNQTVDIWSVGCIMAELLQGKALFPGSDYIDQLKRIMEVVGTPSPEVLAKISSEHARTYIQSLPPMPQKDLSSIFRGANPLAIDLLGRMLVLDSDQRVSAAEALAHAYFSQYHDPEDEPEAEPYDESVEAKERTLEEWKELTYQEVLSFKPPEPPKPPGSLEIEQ
Summary of the method: as §1

KIT = target: T7, KIT (Homo sapiens, UniProt P10721)
T7 construct: purchased Nanosyn (enzymatic panel); SGC in-house recombinant human kinases (DSF panel); Invitrogen (ALK1-6)
T7 sequence (P10721 26-976): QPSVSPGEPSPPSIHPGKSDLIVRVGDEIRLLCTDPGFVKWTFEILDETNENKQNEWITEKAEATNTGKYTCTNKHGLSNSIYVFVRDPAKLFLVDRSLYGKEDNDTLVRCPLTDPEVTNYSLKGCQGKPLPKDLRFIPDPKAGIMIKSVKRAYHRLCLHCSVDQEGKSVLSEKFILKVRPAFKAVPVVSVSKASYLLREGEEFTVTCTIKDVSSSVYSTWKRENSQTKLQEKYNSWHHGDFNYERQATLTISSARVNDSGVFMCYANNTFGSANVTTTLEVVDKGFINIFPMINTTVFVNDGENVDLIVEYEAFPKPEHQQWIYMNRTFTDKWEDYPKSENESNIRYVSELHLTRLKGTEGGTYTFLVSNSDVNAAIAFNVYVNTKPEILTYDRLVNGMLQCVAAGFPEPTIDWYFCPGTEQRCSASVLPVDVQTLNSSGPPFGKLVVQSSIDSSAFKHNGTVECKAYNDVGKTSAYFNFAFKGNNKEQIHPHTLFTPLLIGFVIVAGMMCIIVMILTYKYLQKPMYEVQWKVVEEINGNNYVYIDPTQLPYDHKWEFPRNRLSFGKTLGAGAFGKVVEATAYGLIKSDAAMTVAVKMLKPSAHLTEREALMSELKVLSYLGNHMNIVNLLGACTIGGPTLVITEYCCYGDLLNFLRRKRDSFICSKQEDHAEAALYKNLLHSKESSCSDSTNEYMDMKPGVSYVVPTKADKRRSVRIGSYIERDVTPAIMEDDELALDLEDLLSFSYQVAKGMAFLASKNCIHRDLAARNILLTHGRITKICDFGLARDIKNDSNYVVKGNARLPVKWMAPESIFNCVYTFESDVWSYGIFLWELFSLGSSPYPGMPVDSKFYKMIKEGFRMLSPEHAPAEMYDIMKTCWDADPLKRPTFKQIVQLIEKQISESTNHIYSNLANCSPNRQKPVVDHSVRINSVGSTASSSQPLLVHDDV
Summary of the method: as §1

BMX = target: T8, BMX (Homo sapiens, UniProt P51813)
T8 construct: purchased Nanosyn (enzymatic panel); SGC in-house recombinant human kinases (DSF panel); Invitrogen (ALK1-6)
T8 sequence (P51813 1-675): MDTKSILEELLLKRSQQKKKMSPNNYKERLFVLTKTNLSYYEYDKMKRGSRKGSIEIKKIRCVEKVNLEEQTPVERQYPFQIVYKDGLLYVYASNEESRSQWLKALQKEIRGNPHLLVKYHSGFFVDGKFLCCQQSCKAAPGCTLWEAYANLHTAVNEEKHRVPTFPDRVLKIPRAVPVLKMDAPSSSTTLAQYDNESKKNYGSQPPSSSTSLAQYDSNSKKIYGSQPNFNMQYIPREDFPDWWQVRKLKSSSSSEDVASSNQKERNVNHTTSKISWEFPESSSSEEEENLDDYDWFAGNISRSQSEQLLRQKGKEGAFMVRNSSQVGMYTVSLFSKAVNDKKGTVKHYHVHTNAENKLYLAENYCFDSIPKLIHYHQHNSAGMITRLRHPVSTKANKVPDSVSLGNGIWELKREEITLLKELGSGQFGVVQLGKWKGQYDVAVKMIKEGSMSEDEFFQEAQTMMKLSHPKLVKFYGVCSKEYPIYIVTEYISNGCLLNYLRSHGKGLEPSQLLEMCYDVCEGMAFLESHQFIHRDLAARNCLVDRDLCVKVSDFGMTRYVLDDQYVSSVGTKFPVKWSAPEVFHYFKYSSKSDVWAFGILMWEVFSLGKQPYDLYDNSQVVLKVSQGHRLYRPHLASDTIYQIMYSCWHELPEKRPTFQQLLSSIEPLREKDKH
Summary of the method: as §1

LYNA = target: T9, LYNA (Homo sapiens, UniProt P07948)
T9 construct: purchased Nanosyn (enzymatic panel); SGC in-house recombinant human kinases (DSF panel); Invitrogen (ALK1-6)
T9 sequence (P07948 whole entry): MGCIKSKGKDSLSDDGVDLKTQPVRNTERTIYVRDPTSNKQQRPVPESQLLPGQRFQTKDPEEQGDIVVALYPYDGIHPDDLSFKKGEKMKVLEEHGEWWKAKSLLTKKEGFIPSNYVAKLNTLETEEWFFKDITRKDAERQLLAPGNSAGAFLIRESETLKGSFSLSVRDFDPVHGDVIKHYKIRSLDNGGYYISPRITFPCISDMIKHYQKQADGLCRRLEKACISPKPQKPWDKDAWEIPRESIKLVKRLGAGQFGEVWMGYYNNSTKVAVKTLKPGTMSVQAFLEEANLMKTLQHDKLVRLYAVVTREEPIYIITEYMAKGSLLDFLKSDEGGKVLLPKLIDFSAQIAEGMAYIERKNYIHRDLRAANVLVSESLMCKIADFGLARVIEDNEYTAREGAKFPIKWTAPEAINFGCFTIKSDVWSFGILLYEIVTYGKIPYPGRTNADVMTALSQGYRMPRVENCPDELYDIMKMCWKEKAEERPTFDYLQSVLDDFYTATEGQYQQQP
Summary of the method: as §1

| Compound | inhibition at 0.1 µM (CDK6/cycD3) [%] | inhibition at 1 µM (CDK6/cycD3) [%] | inhibition at 0.1 µM (MARK3) [%] | inhibition at 1 µM (MARK3) [%] | inhibition at 0.1 µM (NEK6) [%] | inhibition at 1 µM (NEK6) [%] | inhibition at 0.1 µM (MER) [%] | inhibition at 1 µM (MER) [%] | inhibition at 0.1 µM (LYNB) [%] | inhibition at 1 µM (LYNB) [%] | inhibition at 0.1 µM (p38β) [%] | inhibition at 1 µM (p38β) [%] | inhibition at 0.1 µM (KIT) [%] | inhibition at 1 µM (KIT) [%] | inhibition at 0.1 µM (BMX) [%] | inhibition at 1 µM (BMX) [%] | inhibition at 0.1 µM (LYNA) [%] | inhibition at 1 µM (LYNA) [%] |
| --- | --- | --- | --- | --- | --- | --- | --- | --- | --- | --- | --- | --- | --- | --- | --- | --- | --- | --- |
| COc1cc(-c2cc(-c3cccc(O)c3)cnc2N)cc(OC)c1OC [K02288, 3-[6-amino-5-(3,4,5-trimethoxy-phenyl)-pyridin-3-yl]-phenol] | 1.7 | 2.8 | 2.6 | 5.6 | -2 | -1 | 5.1 | 40 | 6 | 43 | 0 | 9.7 | 4 | 9.2 | 0.5 | 19 | 9.7 | 49 |
| c1ccc2c(-c3cnn4cc(-c5ccc(N6CCNCC6)cc5)cnc34)ccnc2c1 [LDN-193189] | 7.2 | 22 | 11 | 63 | 2.3 | -1 | 4.4 | 10 | 7.4 | 34 | 0.4 | 1.5 | 7 | 41 | 0.2 | 4 | 9.1 | 39 |
